ChEMBL document CHEMBL2040829, “Highly regioselective synthesis of N-3 organophosphorous derivatives of 3,4-dihydropyrimidin-2(1H)-ones and their calcium channel binding studies” (Eur J Med Chem, 2012)

Assay: Inhibition of calcium channel in pig carotid artery assessed as relaxation of KCl-induced vascular smooth muscle contraction

`COC(=O)C1=C(C)NC(C)=C(C(=O)OC)C1c1ccccc1[N+](=O)[O-]` [NIFEDIPINE] gave an IC50 of 10 nM.
